Legend:
[1] = tested on: Mycobacterium tuberculosis Erdman (autoluminescent); assay: GRinf, maximum normalised growth rate inhibition (three-drug combination) (unitless (-1 to 1)); higher = less effect (negative = killing)
Experimental: (§1)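 DiaMOND equipotent three-drug combination dose responses (10 doses, 1.5- or 2-fold spacing, centred on IC90) against autoluminescent M. tuberculosis Erdman in 8 in vitro models. Read-out is OD600, or luminescence for the intracellular and dormancy models, normalised to untreated wells. Hill-fit Einf, AUC25 and GRinf are potency metrics; FIC50 and FIC90 are total Loewe fractional inhibitory concentrations as log2 (negative = synergy).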

[2] = tested on: Mycobacterium tuberculosis Erdman (autoluminescent); assay: total FIC50 (Loewe) at 50% inhibition, three-drug combination (log2); higher = more antagonistic
Experimental: as §1

[3] = tested on: Mycobacterium tuberculosis Erdman (autoluminescent); assay: AUC25, normalised area under dose response up to IC25 (three-drug combination) (fraction (0-1)); higher = more potent at low dose
Experimental: as §1

[4] = tested on: Mycobacterium tuberculosis Erdman (autoluminescent); assay: total FIC90 (Loewe) at 90% inhibition, three-drug combination (log2); higher = more antagonistic
Experimental: as §1

[5] = tested on: Mycobacterium tuberculosis Erdman (autoluminescent); assay: Einf, fitted maximum growth inhibition of three-drug combination (fraction); higher = stronger maximal inhibition
Experimental: as §1

NNC(=O)c1ccncc1 [isoniazid] + NC(=O)c1cnccn1 [pyrazinamide] + CO[C@H]1/C=C/O[C@@]2(C)Oc3c(C)c(O)c4c(O)c(c(/C=N/N5CCN(C6CCCC6)CC5)c(O)c4c3C2=O)NC(=O)/C(C)=C\C=C\[C@H](C)[C@H](O)[C@@H](C)[C@@H](O)[C@@H](C)[C@H](OC(C)=O)[C@@H]1C [rifapentine]
Details | AUC25, [3] | Einf, [5] | GRinf, [1] | total FIC50, [2] | total FIC90, [4]
in vitro model: acidic pH 5.7, time point: constant (~7 days, model-specific) | 0.096 | 0.925 | -0.35 | -3.55 | –
in vitro model: acidic pH 5.7, time point: terminal (~4-5 doublings, model-specific) | 0.0425 | 0.985 | -0.234 | -2.67 | -3.81
in vitro model: intracellular J774, time point: constant = terminal | – | 0.987 | -0.309 | – | 0.243

Details | AUC25, [3] | Einf, [5] | GRinf, [1] | total FIC50, [2] | total FIC90, [4]
in vitro model: butyrate, time point: constant (~7 days, model-specific) | 0.0899 | 0.924 | -0.00381 | -1.95 | 0.6
in vitro model: butyrate, time point: terminal (~4-5 doublings, model-specific) | 0.0698 | 0.969 | 0.0193 | -1.85 | -1.91
in vitro model: cholesterol 0.05 mM, time point: constant (~7 days, model-specific) | 0.108 | 0.706 | -0.183 | – | –
in vitro model: cholesterol 0.05 mM, time point: terminal (~4-5 doublings, model-specific) | 0.0828 | 0.893 | -0.166 | -0.19 | –
in vitro model: cholesterol-high 0.2 mM, time point: constant (~7 days, model-specific) | 0.0744 | 0.905 | -0.222 | 0.738 | –
in vitro model: cholesterol-high 0.2 mM, time point: terminal (~4-5 doublings, model-specific) | 0.0802 | 0.997 | -0.658 | 1.17 | 1.11
in vitro model: dormancy (butyrate + nitrate, low O2), time point: constant (~7 days, model-specific) | 0.0611 | 0.883 | 0.232 | -2.31 | -2.4
in vitro model: dormancy (butyrate + nitrate, low O2), time point: terminal (~4-5 doublings, model-specific) | 0.0351 | 0.973 | -0.0606 | -2.22 | -2.43
in vitro model: standard 7H9 glycerol, time point: constant = terminal | 0.066 | 0.915 | 0.0607 | -5.95 | –
in vitro model: valerate, time point: constant (~7 days, model-specific) | 0.118 | 0.878 | -0.183 | -1.89 | –
in vitro model: valerate, time point: terminal (~4-5 doublings, model-specific) | 0.0446 | 0.949 | -0.0194 | -1.1 | -0.889

NNC(=O)c1ccncc1 [isoniazid] + O=[N+]([O-])c1cn2c(n1)OC[C@@H](OCc1ccc(OC(F)(F)F)cc1)C2 [pretomanid] + NC(=O)c1cnccn1 [pyrazinamide]
Details | AUC25, [3] | Einf, [5] | GRinf, [1] | total FIC50, [2] | total FIC90, [4]
in vitro model: acidic pH 5.7, time point: constant (~7 days, model-specific) | 0.0986 | 0.815 | -0.16 | -0.198 | –
in vitro model: acidic pH 5.7, time point: terminal (~4-5 doublings, model-specific) | 0.0871 | 0.976 | -0.481 | -0.0964 | -0.184
in vitro model: intracellular J774, time point: constant = terminal | – | 1 | -0.492 | – | 0.732

Details | AUC25, [3] | Einf, [5] | GRinf, [1] | total FIC50, [2] | total FIC90, [4]
in vitro model: butyrate, time point: constant (~7 days, model-specific) | 0.0971 | 0.946 | -0.0723 | 0.158 | 0.768
in vitro model: butyrate, time point: terminal (~4-5 doublings, model-specific) | 0.0657 | 0.972 | -0.0263 | 0.227 | 0.423
in vitro model: cholesterol 0.05 mM, time point: constant (~7 days, model-specific) | 0.106 | 0.696 | -0.21 | – | –
in vitro model: cholesterol 0.05 mM, time point: terminal (~4-5 doublings, model-specific) | 0.0922 | 0.924 | -0.353 | 5.94 | –
in vitro model: cholesterol-high 0.2 mM, time point: constant (~7 days, model-specific) | 0.0717 | 0.874 | -0.172 | 0.524 | –
in vitro model: cholesterol-high 0.2 mM, time point: terminal (~4-5 doublings, model-specific) | 0.0681 | 1 | -0.653 | 0.832 | 0.548
in vitro model: dormancy (butyrate + nitrate, low O2), time point: constant (~7 days, model-specific) | 0.0747 | 0.882 | 0.238 | -0.215 | -0.286
in vitro model: dormancy (butyrate + nitrate, low O2), time point: terminal (~4-5 doublings, model-specific) | 0.0455 | 0.984 | -0.172 | -0.137 | -0.122
in vitro model: standard 7H9 glycerol, time point: constant = terminal | 0.0648 | 0.923 | 0.0829 | 0.311 | –
in vitro model: valerate, time point: constant (~7 days, model-specific) | 0.115 | 0.888 | -0.0645 | -0.24 | –
in vitro model: valerate, time point: terminal (~4-5 doublings, model-specific) | 0.0719 | 0.922 | 0.077 | 0.0468 | 0.0214

CC[C@@H](CO)NCCN[C@@H](CC)CO [ethambutol] + O=[N+]([O-])c1cn2c(n1)OC[C@@H](OCc1ccc(OC(F)(F)F)cc1)C2 [pretomanid] + NC(=O)c1cnccn1 [pyrazinamide]
Details | AUC25, [3] | Einf, [5] | GRinf, [1] | total FIC50, [2] | total FIC90, [4]
in vitro model: acidic pH 5.7, time point: constant (~7 days, model-specific) | 0.122 | 0.735 | -0.0977 | -0.536 | –
in vitro model: acidic pH 5.7, time point: terminal (~4-5 doublings, model-specific) | 0.091 | 0.962 | -0.384 | 0.211 | -1.13
in vitro model: intracellular J774, time point: constant = terminal | – | 0.983 | -0.544 | – | -0.753

Details | AUC25, [3] | Einf, [5] | GRinf, [1] | total FIC50, [2] | total FIC90, [4]
in vitro model: butyrate, time point: constant (~7 days, model-specific) | 0.0885 | 0.898 | 0.0512 | 0.0336 | –
in vitro model: butyrate, time point: terminal (~4-5 doublings, model-specific) | 0.0789 | 0.949 | 0.0472 | 0.0804 | 0.185
in vitro model: cholesterol 0.05 mM, time point: constant (~7 days, model-specific) | 0.13 | 0.709 | -0.334 | – | –
in vitro model: cholesterol 0.05 mM, time point: terminal (~4-5 doublings, model-specific) | 0.129 | 0.723 | -0.277 | 0.522 | –
in vitro model: cholesterol-high 0.2 mM, time point: constant (~7 days, model-specific) | 0.0837 | 0.876 | -0.121 | 0.648 | –
in vitro model: cholesterol-high 0.2 mM, time point: terminal (~4-5 doublings, model-specific) | 0.0682 | 0.992 | -0.572 | 0.65 | 1.05
in vitro model: dormancy (butyrate + nitrate, low O2), time point: constant (~7 days, model-specific) | 0.127 | 0.844 | 0.4 | -0.415 | –
in vitro model: dormancy (butyrate + nitrate, low O2), time point: terminal (~4-5 doublings, model-specific) | 0.11 | 0.967 | -0.312 | 0.312 | 1.35
in vitro model: standard 7H9 glycerol, time point: constant = terminal | 0.0755 | 0.913 | 0.125 | 0.461 | –
in vitro model: valerate, time point: constant (~7 days, model-specific) | 0.0698 | 0.882 | 0.0142 | -0.111 | –
in vitro model: valerate, time point: terminal (~4-5 doublings, model-specific) | 0.0514 | 0.919 | 0.0593 | 0.0754 | -0.361
